For one experiment, the target named is Recombinant HDAC1 (Homo sapiens (Human), UniProt Q13547). Kind of experiment: HDAC1 inhibition, Fluor de Lys fluorescent enzyme assay. The format is biochemical. Particulars: 3 hours pre-incubation at room temp; 6 nM enzyme; 16 μM Fluor de Lys substrate; duplicate. The source says:
(§1) Recombinant HDAC1 (cat #: 50051) and HDAC3/NCor2 (cat #: 50003) enzymes were purchased from BPS Bioscience (San Diego, CA, US). Assay reagents for the detection of HDAC enzyme activity (Fluor de Lys®—Green substrate and Developer kits) were purchased from Enzo Life Science (Farmingdale, NY, US). Plates used to conduct the enzyme reaction were Proxiplate-384 (cat #: 6008280) Plus from PerkinElmer (Waltham, MA, US). TSA, an HDAC inhibitor, was purchased from Enzo Life Science (cat #BML-GR309-9090) The remainder of the reagents used to prepare the assay buffer were purchased from Sigma-Aldrich (St Louis, MO, US). Unless stated otherwise, HDAC1 and 3 assays were conducted in 50 mM Tris buffer, pH 8, 137 mM NaCl, 2.7 mM KCl, 0.01% BSA.
(§2) IC50 determination for HDAC1 and HDAC3—Prior to adding reagents, 50 nL/well of compound were added to Proxiplates using an Echo dispenser instrument (Beckman Coulter, CA, US). After addition of compound, 2.5 μL/well of 2× enzyme solution was added and the enzyme was pre-incubated with compound for 3 hours at room temp. (˜22° C.). After the pre-incubation period, the enzyme reaction was initiated by adding 2.5 μL/well of 2× Fluor de Lys® substrate solution. The assay reaction was stopped after one hour by adding 5 μl/well of a 0.66× Developer solution containing TSA (3.2 μM). The final product of the enzyme reaction was read using a Spectramax plate reader instrument (Molecular Devices, CA, US) using a fluorescent readout (Ex 360 nm/Em 460 nm). The final enzyme concentrations in the assay buffer for HDAC1 and 3 were 6 and 1.2 nM, respectively. The final Fluor de Lys® substrate concentration in the assay buffer was 16 μM for all HDAC enzymes. IC50 values were determined using the following equation: […]
(§3) Where Efree and Eo are the free and total amount of HDAC enzyme in the reaction mixture, n is the hill coefficient, I is the free inhibitor concentration, and IC50 is the measure of the potency equivalent to the inhibitor concentration that leads to a 50% occupancy of the total enzyme. Each data was generated in duplicate.

The target in the next experiment is HDAC3/NCor2 (Homo sapiens (Human), UniProt O15379). Kind of experiment: HDAC3 inhibition, Fluor de Lys fluorescent enzyme assay. The format is biochemical. Particulars: 3 hours pre-incubation at room temp; 1.2 nM enzyme; 16 μM Fluor de Lys substrate; duplicate.
Excerpt: as §1, §2, §3

Each structure is given as a SMILES string.

Chain of Recombinant HDAC1 (Q13547 whole entry): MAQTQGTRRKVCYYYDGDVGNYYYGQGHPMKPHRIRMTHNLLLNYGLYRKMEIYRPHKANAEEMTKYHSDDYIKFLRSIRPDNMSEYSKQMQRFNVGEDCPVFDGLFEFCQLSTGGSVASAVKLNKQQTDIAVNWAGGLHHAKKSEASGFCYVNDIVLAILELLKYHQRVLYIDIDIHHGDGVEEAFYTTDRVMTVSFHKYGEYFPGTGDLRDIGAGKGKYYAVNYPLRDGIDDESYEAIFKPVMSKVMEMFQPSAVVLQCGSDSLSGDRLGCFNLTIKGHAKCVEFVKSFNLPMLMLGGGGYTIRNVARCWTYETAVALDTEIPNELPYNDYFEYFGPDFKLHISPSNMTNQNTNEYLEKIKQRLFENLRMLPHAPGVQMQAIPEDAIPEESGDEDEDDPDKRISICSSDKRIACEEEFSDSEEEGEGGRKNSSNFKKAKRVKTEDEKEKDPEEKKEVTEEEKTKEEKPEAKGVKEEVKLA
Chain of HDAC3/NCor2 (O15379 whole entry): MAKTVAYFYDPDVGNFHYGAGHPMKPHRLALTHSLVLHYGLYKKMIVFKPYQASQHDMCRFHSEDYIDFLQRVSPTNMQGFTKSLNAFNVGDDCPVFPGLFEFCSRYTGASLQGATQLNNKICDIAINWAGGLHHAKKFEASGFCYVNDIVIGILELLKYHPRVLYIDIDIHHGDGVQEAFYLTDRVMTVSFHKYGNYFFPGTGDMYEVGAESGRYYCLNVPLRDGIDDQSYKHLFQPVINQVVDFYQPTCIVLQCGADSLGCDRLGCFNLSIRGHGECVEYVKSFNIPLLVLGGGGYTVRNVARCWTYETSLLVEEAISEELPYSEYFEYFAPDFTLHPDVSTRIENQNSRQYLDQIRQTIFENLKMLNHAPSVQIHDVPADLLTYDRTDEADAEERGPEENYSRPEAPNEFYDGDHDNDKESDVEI
Chain of HDAC3/NCor2 (Q9Y618 395-489 partner): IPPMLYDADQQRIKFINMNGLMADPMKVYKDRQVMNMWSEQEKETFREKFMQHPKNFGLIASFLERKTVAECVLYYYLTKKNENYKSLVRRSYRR

The IC50 is the point on the concentration scale where inhibition reaches its midpoint. In the case of `CCN=S(C)(=O)c1ccc(C(=O)Nc2cc(-c3cccs3)ccc2N)cc1` (stereo not shown) [Compound 141, N-[2-amino-5-(2-thienyl)phenyl]-4-(N-ethyl-S-methyl-sulfonimidoyl)benzamide], the figures for the IC50 on Recombinant HDAC1 and against HDAC3/NCor2 were < 100 nM and 500 to 2000 nM, respectively.

On to `CS(=N)(=O)c1ccc(C(=O)Nc2cc(-c3ccc(F)cc3)ccc2N)s1` (stereo not shown) [Compound 161, N-[2-amino-5-(4-fluorophenyl)phenyl]-5-(methylsulfonimidoyl)thiophene-2-carboxamide], for which the IC50 on Recombinant HDAC1 was < 100 nM; against HDAC3/NCor2, 100 to 500 nM.

As for `CS(=N)(=O)c1ccc(C(=O)Nc2cc(-c3cccnc3)ccc2N)cc1` (stereo not shown) [Compound 107, N-[2-amino-5-(3-pyridyl)phenyl]-4-(methylsulfonimidoyl)benzamide], the IC50 on Recombinant HDAC1 lay in the range of 100 to 500 nM; against HDAC3/NCor2, 500 to 2000 nM.

`N=S(=O)(c1ccc(C(=O)Nc2cc(-c3ccc(F)s3)ccc2N)cc1)C1CC1` (racemic) [Compound 127, rac-N-[2-amino-5-(5-fluoro-2-thienyl)phenyl]-4-(cyclopropylsulfonimidoyl)benzamide]: the figures for the IC50 on Recombinant HDAC1 and on HDAC3/NCor2 were < 100 nM and 500 to 2000 nM, respectively.

In the case of `CS(=N)(=O)c1cnc2sc(C(=O)Nc3cc(-c4ccc(F)cc4)ccc3N)cc2c1` (stereo not shown) [Compound 202, N-[2-amino-5-(4-fluorophenyl)phenyl]-5-(methylsulfonimidoyl)thieno[2,3-b]pyridine-2-carboxamide], the half-maximal inhibitory concentration (IC50) was < 100 nM at Recombinant HDAC1 and > 2000 nM against HDAC3/NCor2.

With `Nc1ccc(-c2ccc(F)cc2)cc1NC(=O)c1cc2cc(S3(=O)=NCCC3)ccc2s1` (stereo not shown) [Compound 204], the IC50 on HDAC3/NCor2 lay within 500 to 2000 nM.

For the molecule `CS(=N)(=O)C1(c2ccc(C(=O)Nc3cc(-c4cccs4)ccc3N)cc2)CC1` (stereo not shown) [Compound 140, N-[2-amino-5-(2-thienyl)phenyl]-4-[1-(methylsulfonimidoyl)cyclopropyl]benzamide], the IC50 at Recombinant HDAC1 is < 100 nM; against HDAC3/NCor2, 500 to 2000 nM.

Take `CS(=N)(=O)c1cnc(C(=O)Nc2cc(-c3ccc(F)cc3)ccc2N)s1` (stereo not shown) [Compound 188, N-[2-amino-5-(4-fluorophenyl)phenyl]-5-(methylsulfonimidoyl)thiazole-2-carboxamide]: the IC50 at Recombinant HDAC1 is < 100 nM; at HDAC3/NCor2, 500 to 2000 nM.

For `N=S(=O)(c1ccc(C(=O)Nc2cc(-c3cccnc3)ccc2N)cc1)C1CC1` (stereo not shown) [Compound 116, N-[2-amino-5-(3-pyridyl)phenyl]-4-(cyclopropylsulfonimidoyl)benzamide], the concentration for half-maximal inhibition (IC50) on Recombinant HDAC1 is < 100 nM; on HDAC3/NCor2, 500 to 2000 nM.

For `COc1ccncc1S(=N)(=O)c1ccc(C(=O)Nc2cc(-c3ccc(F)cc3)ccc2N)cc1` (stereo not shown) [Compound 240, N-[2-amino-5-(4-fluorophenyl)phenyl]-4-[(4-methoxy-3-pyridyl)sulfonimidoyl]benzamide], the figures for the half-inhibitory concentration (IC50) on Recombinant HDAC1 and against HDAC3/NCor2 were < 100 nM and 500 to 2000 nM, respectively.

For `CS(=N)(=O)c1ccc(C(=O)Nc2cc(-c3cccs3)ccc2O)cc1` (stereo not shown) [Compound 123, N-[2-hydroxy-5-(2-thienyl)phenyl]-4-(methylsulfonimidoyl)benzamide], the 50% inhibitory concentration (IC50) was < 100 nM on Recombinant HDAC1 and 500 to 2000 nM on HDAC3/NCor2.

On to `CS(=N)(=O)c1ccc2sc(C(=O)Nc3cc(-c4cccs4)ccc3N)cc2c1` (stereo not shown) [Compound 138, N-[2-amino-5-(2-thienyl)phenyl]-5-(methylsulfonimidoyl)benzothiophene-2-carboxamide], for which the results for the IC50 on Recombinant HDAC1 and against HDAC3/NCor2 were < 100 nM and 500 to 2000 nM, respectively.

In the case of `N=S(=O)(c1ccc(C(=O)Nc2cc(-c3ccc(F)cc3)ccc2N)cc1)c1cccnn1` (stereo not shown) [Compound 174, N-[2-amino-5-(4-fluorophenyl)phenyl]-4-(pyridazin-3-ylsulfonimidoyl)benzamide], the IC50 at Recombinant HDAC1 is < 100 nM; against HDAC3/NCor2 it was 500 to 2000 nM.

As to `Cc1csc(-c2ccc(N)c(NC(=O)c3ccc(S(C)(=N)=O)cc3)c2)c1` (stereo not shown) [Compound 135, N-[2-amino-5-(4-methyl-2-thienyl)phenyl]-4-(methylsulfonimidoyl)benzamide], the IC50 on Recombinant HDAC1 is < 100 nM; at HDAC3/NCor2, > 2000 nM.

Consider `N=S(=O)(c1ccc(C(=O)Nc2cc(-c3ccc(F)cc3)ccc2N)cc1)c1cncc(Cl)c1` (stereo not shown) [Compound 245, N-(4-amino-4′-fluoro-[1,1′-biphenyl]-3-yl)-4-(5-chloropyridine-3-sulfonimidoyl)benzamide], for which the half-maximal inhibitory concentration (IC50) on Recombinant HDAC1 is < 100 nM; on HDAC3/NCor2, 500 to 2000 nM.

`N=S(=O)(c1ccncc1)c1ccc(C(=O)Nc2cc(-c3ccc(F)cc3)ccc2N)cc1` (stereo not shown) [Compound 168, N-[2-amino-5-(4-fluorophenyl)phenyl]-4-(4-pyridylsulfonimidoyl)benzamide]: the values for the concentration for half-maximal inhibition (IC50) on Recombinant HDAC1 and against HDAC3/NCor2 were < 100 nM and 500 to 2000 nM, respectively.

In the case of `Cc1ccncc1S(=N)(=O)c1ccc(C(=O)Nc2cc(-c3ccc(F)cc3)ccc2N)cc1` (stereo not shown) [Compound 198, N-[2-amino-5-(4-fluorophenyl)phenyl]-4-[(4-methyl-3-pyridyl)sulfonimidoyl]benzamide], the values for the IC50 at Recombinant HDAC1 and at HDAC3/NCor2 were < 100 nM and 500 to 2000 nM, respectively.

For `N=S(=O)(c1ccc(C(=O)Nc2cc(-c3ccc(F)cc3)ccc2N)cc1)c1ccc(=O)[nH]c1` (stereo not shown) [Compound 192, N-[2-amino-5-(4-fluorophenyl)phenyl]-4-[(6-oxo-1H-pyridin-3-yl)sulfonimidoyl]benzamide], the IC50 is < 100 nM on Recombinant HDAC1 and 500 to 2000 nM at HDAC3/NCor2.

For `N=S(=O)(c1ccccn1)c1ccc(C(=O)Nc2cc(-c3ccc(F)cc3)ccc2N)cn1` (stereo not shown) [Compound 175, N-[2-amino-5-(4-fluorophenyl)phenyl]-6-(2-pyridylsulfonimidoyl)pyridine-3-carboxamide], the concentration for half-maximal inhibition (IC50) at Recombinant HDAC1 is < 100 nM; against HDAC3/NCor2, 500 to 2000 nM.

`N=[S@@](=O)(c1ccc(C(=O)Nc2cc(-c3cccs3)ccc2N)cc1)C1CC1` (single isomer, unassigned) [Compound 115]: the IC50 on Recombinant HDAC1 was < 100 nM; against HDAC3/NCor2 it was 500 to 2000 nM.

On HDAC3/NCor2, `Nc1ccc(-c2ccc(F)cc2)cc1NC(=O)c1ccc(S2(=O)=NCCCC2)cc1` (stereo not shown) [Compound 243, N-[2-amino-5-(4-fluorophenyl)phenyl]-4-(1-oxo-1thia-2-azacyclohexen-1-yl)benzamide] gave an IC50 of 500 to 2000 nM.

Take `N=S(=O)(c1ccc(C(=O)Nc2cc(-c3ccc(F)cc3)ccc2N)cn1)C1CC1` (stereo not shown) [Compound 179, N-[2-amino-5-(4-fluorophenyl)phenyl]-6-(cyclopropylsulfonimidoyl)pyridine-3-carboxamide]: the half-inhibitory concentration (IC50) is < 100 nM at Recombinant HDAC1 and 500 to 2000 nM at HDAC3/NCor2.

On to `CCN=S(C)(=O)c1ccc(C(=O)Nc2cc(-c3ccc(F)cc3)ccc2N)cc1` (stereo not shown) [Compound 165, N-[2-amino-5-(4-fluorophenyl)phenyl]-4-(N-ethyl-S-methyl-sulfonimidoyl)benzamide], for which the 50% inhibitory concentration (IC50) at Recombinant HDAC1 was < 100 nM; against HDAC3/NCor2, 500 to 2000 nM.

Regarding `Nc1ccc(-c2cccs2)cc1NC(=O)c1ccc(S2(=O)=NCCC2)cc1` (stereo not shown) [Compound 126, N-[2-amino-5-(2-thienyl)phenyl]-4-(1-oxo-4,5-dihydro-3H-isothiazol-1-yl)benzamide], the IC50 at HDAC3/NCor2 fell in the range of 500 to 2000 nM.

Turning to `N=S(=O)(c1ccc(C(=O)Nc2cc(-c3ccc(F)cc3)ccc2N)cc1)c1ccc(C(F)(F)F)cc1` (stereo not shown) [Compound 256, N-[2-amino-5-(4-fluorophenyl)phenyl]-4-[[4-(trifluoromethyl)phenyl]sulfonimidoyl]benzamide], the IC50 was < 100 nM on Recombinant HDAC1 and > 2000 nM on HDAC3/NCor2.

In the case of `CS(=N)(=O)Cc1ccc(C(=O)Nc2cc(-c3ccc(F)cc3)ccc2N)cn1` (stereo not shown) [Compound 201], the IC50 against HDAC3/NCor2 fell in the range of 500 to 2000 nM.

Turning to `Nc1ccc(-c2ccc(F)cc2)cc1NC(=O)c1ccc(S2(=O)=NCCC2)cc1` (stereo not shown) [Compound 154, N-[2-amino-5-(4-fluorophenyl)phenyl]-4-(1-oxo-4,5-dihydro-3H-isothiazol-1-yl)benzamide], at HDAC3/NCor2, the half-inhibitory concentration (IC50) lay within 500 to 2000 nM.

Molecule `Nc1ccc(-c2ccc(F)s2)cc1NC(=O)c1ccc(S2(=O)=NCCC2)cc1` (stereo not shown) [Compound 160, N-[2-amino-5-(5-fluoro-2-thienyl)phenyl]-4-(1-oxo-4,5-dihydro-3H-isothiazol-1-yl)benzamide] registered an IC50 at HDAC3/NCor2 of 500 to 2000 nM.

In the case of `N=S(=O)(c1ccc(C(=O)Nc2cc(-c3ccc(F)cc3)ccc2N)cc1)c1ccc(Cl)cn1` (stereo not shown) [Compound 213], the 50% inhibitory concentration (IC50) at HDAC3/NCor2 lay within 500 to 2000 nM.

`Nc1ccc(-c2ccc(F)cc2)cc1NC(=O)c1ccc(S2(=O)=NCCC2)nc1` (stereo not shown) [Compound 178, N-[2-amino-5-(4-fluorophenyl)phenyl]-6-(1-oxo-4,5-dihydro-3H-isothiazol-1-yl)pyridine-3-carboxamide] came in with an IC50 on HDAC3/NCor2 of 500 to 2000 nM.

For the origin of these results see patent US20250136570A1 (Tango Therapeutics, Inc., priority 2021, published 2025).
